From patent US5556744A, “Methods and compositions for diagnosing and treating certain HIV infected patients” (The Trustees of the University of Pennsylvania, priority 1994, dated 1996) come the findings set out here.

Holding throughout (set-up): species or system human
For experiment [1], the system named is sera samples (antibodies). In words: ELISA peptide-binding of maternal sera, MN strain peptides (Example 7). As to conditions: for Correlation of peptide binding with non-transmission (in words): Example 7; for % Bound, Non-Transmitter / No. of Sera Samples Bound, Non-Transmitter / % Bound, Transmitter / No. of Sera Samples Bound, Transmitter: n = 5. The procedure:
This example provides additional sera screens using peptides corresponding to sequences of the MN strain. The sera samples (5 transmitters and 5 non-transmitters) were obtained from the NIH and differ from those screened in the previous studies. Peptide binding was analyzed by ELISA as described in Example 3.

Experiment [2] concerns maternal HIV+ sera (antibodies). In words: RIA / ELISA binding of maternal HIV+ sera to gp120 and gp41 peptides (Example 3). In outline: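 Peptides were coated at 10 μg/ml in carbonate buffer pH 9.6 and blocked with 1% BSA. Sera at 1:50 and 1:500 were incubated overnight at 4°C and detected with ¹²⁵I anti-human IgG (RIA) or HRP/TMB at OD450 (ELISA). Specific binding was taken as peptide minus no-peptide wells, scored as a ratio to normal human serum.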

The test system of experiment [3] is maternal sera (antibodies). Nature of the experiment: ELISA peptide-binding of maternal sera (Example 6). An outline of the steps:
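Third-trimester maternal sera, from HIV-1 transmitting and non-transmitting mothers, were tested by ELISA against ~16-residue peptides spanning HIV-1 external and transmembrane glycoproteins. Each serum was run with at least 40 peptides, and values are the percentage of sera binding each peptide.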

As for DTSGRLVHGFLAIIW [MN-8], in experiment [1], the “Correlation of peptide binding with non-transmission (in words)” value is “selectively correlate with non-transmission”; the “% Bound, Non-Transmitter” value is listed as 80%; the “No. of Sera Samples Bound, Non-Transmitter” value is given as 4; the “% Bound, Transmitter” value worked out at 20%. For the same substance, the “No. of Sera Samples Bound, Transmitter” value in experiment [1] was found to be 1.

In the case of HIPTRIRQGLERALL [MN-11], in experiment [1], the “Correlation of peptide binding with non-transmission (in words)” value is on record as “selectively correlate with non-transmission”; the “% Bound, Non-Transmitter” value was 60%; the “No. of Sera Samples Bound, Non-Transmitter” value is on record as 3; the “% Bound, Transmitter” value worked out at 0%. The “No. of Sera Samples Bound, Transmitter” value in experiment [1] stood at 0.

With HMLQLTVWGIKQLQAR [MN-15], in experiment [1], the “Correlation of peptide binding with non-transmission (in words)” value is on record as “selectively correlate with non-transmission”; the “% Bound, Non-Transmitter” value is reported as 60%; the “No. of Sera Samples Bound, Non-Transmitter” value turned out to be 3; the “% Bound, Transmitter” value was 0%. Besides, the “No. of Sera Samples Bound, Transmitter” value in experiment [1] was found to be 0.

With “MN-10: gp41 peptide, amino acids 716-730, HIV strain MN, SEQ ID NO: 158”, in experiment [1], the “% Bound, Non-Transmitter” value amounted to 20%; the “No. of Sera Samples Bound, Non-Transmitter” value is reported as 1; the “% Bound, Transmitter” value is listed as 20%; the “No. of Sera Samples Bound, Transmitter” value was found to be 1.

With “MN-12: gp41 peptide, amino acids 830-842, HIV strain MN, SEQ ID NO: 197”, in experiment [1], the “% Bound, Non-Transmitter” value worked out at 0%; the “No. of Sera Samples Bound, Non-Transmitter” value is listed as 0; the “% Bound, Transmitter” value stood at 0%; the “No. of Sera Samples Bound, Transmitter” value worked out at 0.

As to “MN-13: gp41 peptide, amino acids 619-637, HIV strain MN, SEQ ID NO: 166”, in experiment [1], the “% Bound, Non-Transmitter” value is reported as 60%; the “No. of Sera Samples Bound, Non-Transmitter” value stood at 3; the “% Bound, Transmitter” value worked out at 0%; the “No. of Sera Samples Bound, Transmitter” value was 0.

As to “MN-16: gp41 peptide, amino acids 638-650, HIV strain MN, SEQ ID NO: 167”, in experiment [1], the “% Bound, Non-Transmitter” value is reported as 0%; the “No. of Sera Samples Bound, Non-Transmitter” value is recorded as 0; the “% Bound, Transmitter” value is 0%; the “No. of Sera Samples Bound, Transmitter” value came out at 0.

Regarding “MN-19: gp41 peptide, amino acids 531-540, HIV strain MN, SEQ ID NO: 169 (MGAASVTLTV)”, in experiment [1], the “% Bound, Non-Transmitter” value stood at 20%; the “No. of Sera Samples Bound, Non-Transmitter” value turned out to be 1; the “% Bound, Transmitter” value is 20%; the “No. of Sera Samples Bound, Transmitter” value is 1.

In the case of WGIKQLQARILAVER [Peptide 120], the “Binding of maternal HIV+ serum to peptide (sera/NHS ratio)” value (from here on “Binding … (sera/NHS ratio)”) in experiment [2] (Serum No. 1, Non-Transmission Group) is on record as “- (specific OD450 or cpm of sera sample binding to peptide divided by the specific OD450 or cpm of NHS sample binding to peptide, which value is less than 2)”; in experiment [2] (Serum No. 2, Non-Transmission Group), “- (specific OD450 or cpm of sera sample binding to peptide divided by the specific OD450 or cpm of NHS sample binding to peptide, which value is less than 2)”; in experiment [2] (Serum No. 3, Non-Transmission Group), “- (specific OD450 or cpm of sera sample binding to peptide divided by the specific OD450 or cpm of NHS sample binding to peptide, which value is less than 2)”; in experiment [2] (Serum No. 4, Transmission Group), “- (specific OD450 or cpm of sera sample binding to peptide divided by the specific OD450 or cpm of NHS sample binding to peptide, which value is less than 2)”; in experiment [2] (Serum No. 5, Transmission Group) it was “- (specific OD450 or cpm of sera sample binding to peptide divided by the specific OD450 or cpm of NHS sample binding to peptide, which value is less than 2)”; in experiment [2] (Serum No. 6, Non-Transmission Group), “- (specific OD450 or cpm of sera sample binding to peptide divided by the specific OD450 or cpm of NHS sample binding to peptide, which value is less than 2)”. The “Binding … (sera/NHS ratio)” value in experiment [2] (Serum No. 7, Non-Transmission Group) is reported as “- (specific OD450 or cpm of sera sample binding to peptide divided by the specific OD450 or cpm of NHS sample binding to peptide, which value is less than 2)”; in experiment [2] (Serum No. 8, Non-Transmission Group) it was “- (specific OD450 or cpm of sera sample binding to peptide divided by the specific OD450 or cpm of NHS sample binding to peptide, which value is less than 2)”; in experiment [2] (Serum No. 9, Non-Transmission Group), “- (specific OD450 or cpm of sera sample binding to peptide divided by the specific OD450 or cpm of NHS sample binding to peptide, which value is less than 2)”; in experiment [2] (Serum No. 10, Transmission Group), “- (specific OD450 or cpm of sera sample binding to peptide divided by the specific OD450 or cpm of NHS sample binding to peptide, which value is less than 2)”; in experiment [2] (Serum No. 11, Non-Transmission Group) it was “- (specific OD450 or cpm of sera sample binding to peptide divided by the specific OD450 or cpm of NHS sample binding to peptide, which value is less than 2)”; in experiment [2] (Serum No. 12, Non-Transmission Group) it was “- (specific OD450 or cpm of sera sample binding to peptide divided by the specific OD450 or cpm of NHS sample binding to peptide, which value is less than 2)”. Further, the “Binding … (sera/NHS ratio)” value was “- (specific OD450 or cpm of sera sample binding to peptide divided by the specific OD450 or cpm of NHS sample binding to peptide, which value is less than 2)” in experiment [2] (Serum No. 13, Transmission Group); “- (specific OD450 or cpm of sera sample binding to peptide divided by the specific OD450 or cpm of NHS sample binding to peptide, which value is less than 2)” in experiment [2] (Serum No. 14, Transmission Group); “- (specific OD450 or cpm of sera sample binding to peptide divided by the specific OD450 or cpm of NHS sample binding to peptide, which value is less than 2)” in experiment [2] (Serum No. 15, Transmission Group); “- (specific OD450 or cpm of sera sample binding to peptide divided by the specific OD450 or cpm of NHS sample binding to peptide, which value is less than 2)” in experiment [2] (Serum No. 16, Non-Transmission Group); “- (specific OD450 or cpm of sera sample binding to peptide divided by the specific OD450 or cpm of NHS sample binding to peptide, which value is less than 2)” in experiment [2] (Serum No. 17, Non-Transmission Group); “- (specific OD450 or cpm of sera sample binding to peptide divided by the specific OD450 or cpm of NHS sample binding to peptide, which value is less than 2)” in experiment [2] (Serum No. 18, Non-Transmission Group). In addition, the “Binding … (sera/NHS ratio)” value in experiment [2] (Serum No. 19, Transmission Group) is reported as “- (specific OD450 or cpm of sera sample binding to peptide divided by the specific OD450 or cpm of NHS sample binding to peptide, which value is less than 2)”; in experiment [2] (Serum No. 20, Non-Transmission Group) it was “- (specific OD450 or cpm of sera sample binding to peptide divided by the specific OD450 or cpm of NHS sample binding to peptide, which value is less than 2)”. Besides, in experiment [3] (Non-Transmitters, N = 12), the “Number of Non-Transmitters which bound to peptide” value is reported as 0. Also, in experiment [3] (Non-Transmitters, N = 12), the “Percent of Non-Transmitters which bound to peptide” value was 0%. The “Number of Transmitters which bound to peptide” value in experiment [3] (Transmitters, N = 4) is 0. For the same substance, in experiment [3] (Transmitters, N = 4), the “Percent of Transmitters which bound to peptide” value was determined as 0%.

With YIKIFIMIVGGLVG [MN-17], in experiment [1], the “Correlation of peptide binding with non-transmission (in words)” value was “selectively correlate with non-transmission”; the “% Bound, Non-Transmitter” value worked out at 40%; the “No. of Sera Samples Bound, Non-Transmitter” value worked out at 2; the “% Bound, Transmitter” value was determined as 0%. For the same substance, the “No. of Sera Samples Bound, Transmitter” value in experiment [1] came out at 0.
